The values below are quoted from earlier work in US4324553A, “Hair dyeing compositions containing at least one 2,4-diamino-alkylbenzene as coupler” (L'Oreal, priority 1979, dated 1982).

The subject of this data set is Salmonella typhimurium (TA 1538 and TA 98). The conditions noted are these: Salmonella typhimurium TA 1538 and TA 98, with S9 mix induced by Aroclor 1254; prior-art statement.

On to `CCc1ccc(N)cc1N` [2,4-Diamino-ethylbenzene], for which the “mutagenic activity as evaluated in the Ames test” value is recorded as “high mutagenic activity”.

Consider `Cc1ccc(N)cc1N` [2,4-diaminotoluene], for which the “mutagenic activity as evaluated in the Ames test” value is listed as “very high mutagenic activity”.
